These results are taken from patent US6342335B1, “Polymethine compounds, method of producing same, and use thereof” (Yamamoto Chemicals, Inc., priority 1999, dated 2002).

The nature of data set [1]: Maximum absorption wavelength (λmax) in diacetone alcohol. Format: physicochemical. How it is done: The maximum absorption wavelength (λmax) of the polymethine compound of the present invention in diacetone alcohol as well as those of known Compound A and Compound B were measured.
Data set [2] can be described thus: Solubility test in methyl ethyl ketone. Format: physicochemical. The settings on record: 25° C. overnight, visual inspection for insoluble matter. The procedure:
The solubility of the polymethine compound of the invention in methyl ethyl ketone as well as the solubilities of said known Compound A and Compound B were measured. Solubility measurements were carried out by the following method.
A 5 ml screw tube was charged with 200 mg of each polymethine compound and 1 ml of methyl ethyl ketone and agitated for dissolution with Mix-Rotor at 25° C. overnight. Each sample was visually inspected for insoluble matter. When no insoluble residue was found, the solubility was rated ≧20%. When an insoluble residue was found, the solubility was rated less than 20%.

Each structure is given as a SMILES string.

Turning to `COCCN1/C(=C\C=C2/CCCC(/C=C/C3=[N+](CCOC)c4c(C)cc(OC)cc4C3(C)C)=C2Cl)C(C)(C)c2cc(OC)cc(C)c21` [Compound (55), 2-(2-{2-chloro-3-[(1,3-dihydro-3,3,7-trimethyl-5-methoxy-1-methoxyethyl-2H-indol-2-ylidene)ethylidene]-1-cyclohexen-1-yl}ethenyl)-3,3,7-trimethyl-5-methoxy-1-methoxyethylindolium=tetrafluoroborate], the λmax in data set [1] was found to be 822 nm. Moreover, the “Solubility (g/ml)” value in data set [2] is “≧20%”.
In data set [1], `COCCN1/C(=C\C=C2/CCCC(/C=C/C3=[N+](CCOC)c4ccccc4C3(C)C)=C2Cl)C(C)(C)c2ccccc21` [Compound A, reference compound] displayed a λmax of 788 nm.
